“Also recorded” adds a separate entry of the source. Where two headings read alike, the source gives them in different places.
Columns and labels:
[1] = tested on: Western Flower Thrips (Thysanoptera); test: Repellency to Western Flower Thrips on alfalfa inflorescence; format: in vivo; details: 2% coniferyl aldehyde, 1% Tween 80
Excerpt: Western Flower Thrips (Thysanoptera) were collected in the field on infested alfalfa (Medicago sativa). Alfalfa inflorescence were cut then dipped in either a coniferyl aldehyde formulation (2% coniferyl aldehyde, 1% Tween 80) or a water control, then were placed in an experimental arena (approximately 9 cm in diameter by 6 centimeter in height) on a Whatman filter paper disk covering the floor of the arena. Approximately fifty (50) to sixty (60) insects were aspirated into the experimental arena which was then covered with a transparent lid. […] Repellency was determined by the relative number of individuals who successfully maintained feeding and colonization on the inflorescence over time.

[2] = tested on: Aedes Aegypsi (yellow fever mosquito); test: Median Effective Dose to repel Aedes aegypti, mosquito blood feeder; format: in vivo; details: Bandruche membrane, 37°, acetone formulation
Description: Median Effective Dose (ED50) is defined as the amount of chemical required to repel 50% of a target pest. […] The test system used was a mosquito blood feeder, which includes a constant temperature water circulator to warm the blood in the feeder, and the test cage. The blood was maintained at 37°. The blood feeder has five circular blood reservoirs, each of which is filled with outdated blood obtained from the Walter Reed Army Medical Center and certified safe according to Blood Bank testing procedures. The blood was replenished with adenosine triphosphate (ATP), without which the mosquitoes will not feed freely. The blood-filledreservoirs were covered with a Bandruche membrane (a standard membrane barrier). […] DEET was used as a positive control in a similar manner. A negative control formulation (water only) also was tested. The mosquitoes were given access to the blood reservoirs on a "free feeding" basis by means of a sliding door in the bottom of the test cage.

[3] = 25° C.; cited from earlier work
[4] = 33% DEET; cited from earlier work
[5] = cited from earlier work
[6] = tested on: yellow fever mosquito (Aedes aegypti (L)); test: Direct skin application, protection time against yellow fever mosquito; format: in vivo; details: 1 ml 100% HCA on forearm
Description: (§1) A glove was worn to protect the untreated hand while the treated forearm was exposed in a cage containing a high number (2,000-4,000) of unfed mosquitoes for 3 minutes at intervals of approximately 30 minutes until two bites were received (two bites in one test period or one bite in each of two consecutive test periods). The time interval between application and when two bites were received was defined as the "protection time." The repellent classes based on protection time (minutes) are listed below: […]

[7] = tested on: malaria mosquito (Anopheles quadrimaculatus Say); test: Direct skin application, protection time against malaria mosquito; format: in vivo; details: 1 ml 100% HCA on forearm
Description: as §1

yellow fever mosquito = test: Application to clothing, treated stocking against yellow fever mosquito; format: in vivo, Aedes aegypti; details: cotton stocking, 3.3 g/ft^2
Description: HCA also was evaluated on treated cloth against the yellow fever mosquito. In these tests, women's mercerized-cotton stockings were used. […] The stocking was spread on a rack to dry and then hung indoors on a line. The first tests were done 24 hours after treatment. The treated stocking was drawn over the arm, with the treated portion midway on the forearm. The untreated hand was protected with a glove and the stocking-covered arm was exposed for one minute in a testcage. If 5 bites were received, the treatment was considered ineffective. If less than 5 bites were received; the exposures were continued daily until the 14th day and at weekly or biweekly intervals thereafter.

human subjects [8] = details: 12% in petrolatum, 48 hour closed patch; cited from earlier work
human subjects [9] = details: 20% in diethylphthalate, 100 human subjects; cited from earlier work
human = details: cited from earlier work
[10] = tested on: eczema and dermatitis patients; details: human, in vivo; cited from earlier work
[11] = tested on: patients sensitive to 2% cinnamaldehyde; details: human, in vivo; cited from earlier work
rats = details: rat, in vivo; cited from earlier work
[12] = cited from earlier work; remark: listed apart in the source
[13] = tested on: grape phylloxera (Daktulosphaira vitifoliae Fitch); test: Treatment of grapevine leaves for control of root forms of grape phylloxera; format: in vivo; details: for Number of Phylloxera on 6 root sections, Eggs: water 52; for Number of Phylloxera on 6 root sections, 1st instar / Number of Phylloxera on 6 root sections, 2nd instar / Number of Phylloxera on 6 root sections, 3rd instar: water 7; for Number of Phylloxera on 6 root sections, 4th instar: water 13; for Number of Phylloxera on 6 root sections, Adults: water 16
Description: The root form of grape phylloxera (Daktulosphaira vitifoliae Fitch) is arguably the most devastating grape insect world wide. In this experiment, cinnamic aldehyde formulated with 1% Tween 80 was tested for ability to control phylloxera. One year old potted V. vinifera cultivar merlot plants were used that had been obtained from Foundation Plant Material Service, University of California, Davis. The plants were potted in 10 cm diameter ports and were infested with phylloxera 5 weeks prior to treatment. At the time of spraying, plant pots were placed in a plastic bag so that chemical runoff from the leaf sprays would not drip into the soil. Spray was applied to runoff with a household 1 liter-capacity plastic spray bottle. Plants were allowed to air dry outside and then replaced in the greenhouse. At intervals thereafter, the roots were separated from the potting mix and total phylloxera population estimated.
Roots from plants at 5 weeks post-treatment were excised and 6 root sections, about 3 mm diameter by 4 cm length were cleaned of infestations and used in a bioassay. For this bioassay, root sections were inoculated with 20 eggs and the roots maintained as the colonies were maintained. After 25 days, the number of individuals of each age class were counted.

## COc1cc(/C=C/C=O)ccc1O [Coniferyl Aldehyde, coniferyl aldehyde]
[1]; about 50-60 insects, 30 min, water control 22(alive)
  Number of insects on inflorescence (colonization and feeding): 2(dead)
[1]; control tranquil, normal flight, feeding
  Description of insect behavior: Irritated by treatment; also recorded: extreme agitation; also recorded: frequent flying. No
[1]; max, water control 30 minutes
  Length of insect residence time on inflorescence: ≤ 15 s

## CCN(CC)C(=O)c1cccc(C)c1 [DEET, N,N-diethyl-1,3-methylbenzamide]
[2]
  Median Effective Dose (ED50): 0.0124 mg/cm^2
[3]
  vapor pressure: 167×10^-5 mm Hg
[4]
  duration of protection: 10 to 14 h
[5]; repeated use on skin in high concentrations
  adverse effects: can cause allergic and toxic effects

## CCCCCCC(C=O)=Cc1ccccc1 [HCA, 2-(phenylmethylene) octanal]
[2]
  Median Effective Dose (ED50): 0.0031 mg/cm^2
[6]
  protection time: 121 to 180 min
[6]; USDA rating scale
  repellent class based on protection time: 3 (121-180)
[7]
  protection time: 31 to 60 min
[7]; USDA rating scale
  repellent class based on protection time: 2 (31-60)
Yellow fever mosquito
  duration of effectiveness on treated cloth: more than 10 days
  protection time grade on treated cloth: 4 (effective for more than 10 days)
Human subjects [8]
  irritation: no irritation
Human subjects [9]
  positive reactions, repeated insult patch test: no positive reactions
human; in vivo
  human maximization test result: negative
[10]
  patch test positive results out of 100: 0
[11]
  patients found to be sensitive: none
rats
  oral LD50: 3100 mg/kg
[12]
  dermal LD50: greater than 3 g/kg

## O=C/C=C/c1ccccc1 [cinnamic aldehyde]
[13]; 300 ppm, 1% Tween 80, roots 5 weeks post-treatment, 25 days
  Number of Phylloxera on 6 root sections, Eggs: 16
[13]; 300 ppm
  Number of Phylloxera on 6 root sections, 1st instar: 0
  Number of Phylloxera on 6 root sections, 2nd instar: 6
  Number of Phylloxera on 6 root sections, 3rd instar: 5
  Number of Phylloxera on 6 root sections, 4th instar: 0
  Number of Phylloxera on 6 root sections, Adults: 4
[13]; 1000 ppm
  Number of Phylloxera on 6 root sections, 1st instar: 0
  Number of Phylloxera on 6 root sections, 2nd instar: 1
  Number of Phylloxera on 6 root sections, 3rd instar: 4
  Number of Phylloxera on 6 root sections, 4th instar: 2
  Number of Phylloxera on 6 root sections, Adults: 1
  Number of Phylloxera on 6 root sections, Eggs: 2
[13]; 3000 ppm
  Number of Phylloxera on 6 root sections, 1st instar: 0
  Number of Phylloxera on 6 root sections, 2nd instar: 2
  Number of Phylloxera on 6 root sections, 3rd instar: 1
  Number of Phylloxera on 6 root sections, 4th instar: 1
  Number of Phylloxera on 6 root sections, Adults: 0
  Number of Phylloxera on 6 root sections, Eggs: 0
[13]; 10,000 ppm
  Number of Phylloxera on 6 root sections, 1st instar: 0
  Number of Phylloxera on 6 root sections, 2nd instar: 2
  Number of Phylloxera on 6 root sections, 3rd instar: 0
  Number of Phylloxera on 6 root sections, 4th instar: 0
  Number of Phylloxera on 6 root sections, Adults: 0
  Number of Phylloxera on 6 root sections, Eggs: 0
[13]; after foliage treatment
  duration of resistance of excised roots to phylloxera reinfestation: at least 5 weeks
[13]; foliage of whole plants treated
  feeding sites after foliage treatment: Vacant feeding sites were seen
human; literature data, Jimbo (1983)
  human maximization test result: positive reaction

## CCCC(O)C(CC)CO (stereo not shown) [ethyl hexanediol]
[5]; basis of 1991 EPA cancellation of registrations
  adverse effects: possible adverse effects of the compound on fetal development

From patent publication US5792467A, “Repellent compositions containing aromatic aldehydes” (Proguard, Inc., priority 1996, dated 1998)
